A short description of data set [1]: Recovery of GT and bmGT from human whole blood (influence of blood cells). It is filed as in vitro ADME. As to conditions: whole blood, human blood, blood centrifuged before extraction to eliminate cellular fraction; for recovery at 30 min, 5 µg/mL: 5 μg added to 1 ml; for recovery at 30 min, 20 µg/mL: 20 μg added to 1 ml. The procedure:
(§1) […] Later, the blood was centrifuged at 2000 revolutions per minute (rpm) during 15 minutes, the serum was recovered and GT and bmGT were extracted and analysed as described above.
(§2) The samples were separated using a horizontal developing chamber (Camag) by facing the plates downwards. n-heptane (C7), MeOH, tetrahydrofuran (THF) and acetonitrile (ACN) (HPLC grade, Scharlau, Barcelona, Spain) were used as solvents. The separation and quantification of GT and bmGT was performed with a mixture of THF:C7:ACN (40:58:2) (v:v:v) during 3 min.
(§3) Detection and quantification by UV spectroscopy, a TLC3 scanner was used (Camag) in UV mode whereby a UV scanning densitometry was carried out to determine GT and bmGT (wavelength (λ)=280 and 367 nm). A linear scan with a beam of 4 mm×0.2 mm was used in both cases. The area under the peaks was quantified and saved using Camag's software.
(§4) In parallel, the influence of the presence of blood cells on the recovery of GT and bmGT was analysed. Unlike the serum and plasma, less than 10% of GT was recovered from the whole blood, even when large quantities of GT (20 ug) were added (Table 1). […] The precision of this determination was as high as in the serum or plasma with RSD values of between 9-16%. Aliquots of blood and plasma from the same unit of blood were used simultaneously to perform these determinations, therefore, the only, but crucial, difference between both fluids is the presence of red and white cells in the blood.

The test system of another data set is blood cells. Described as above. It is filed as in vitro ADME. The following applies: for lost in the blood cells: added to total blood, plasma levels analysed after 10 minutes. The procedure:
as §1, §2, §3, §4

For data set [2] the following is noted: disulfide bond blocked by methylation; cited from earlier work.

In data set [1], `CS[C@]1(CO)C(=O)N2C3C(=CC=C[C@@H]3O)C[C@@]2(SC)C(=O)N1C` (some centres unmarked) [bmGT] gave a recovery at 30 min, 5 µg/mL of 73.2% and a recovery at 30 min, 20 µg/mL of 87.2%. In addition, the “lost in the blood cells” value in the data set on blood cells is listed as 10-15%. The biological activity result in data set [2] is “biologically inactive”.
In data set [1], `CN1C(=O)[C@]23CC4=CC=C[C@H](O)[C@H]4N2C(=O)[C@@]1(CO)SS3` [GT, Gliotoxin] registered a recovery at 30 min, 5 µg/mL of 8.44% and a recovery at 30 min, 20 µg/mL of 6.56%. The “lost in the blood cells” value in the data set on blood cells amounted to 90%. In addition, the “recovered from the whole blood” value in the data set on blood cells (whole blood, even when large quantities (20 ug) were added) was “less than 10%”.

These data come from patent US20140155341A1, “USE OF SS'-DIMETHYL-GLIOTOXIN AS […] OF P[…] BY GLIOTOXIN-PRODUCING FUNGI OR THEIR DERIVATIVES” (priority 2011, published 2014).
